Measurements taken from article PMC10795796 (Biochemistry, 2023).

Target: T1, TIR domain of TIR-1 (Caenorhabditis elegans, UniProt Q86DA5)
T1 sequence (Q86DA5 707-930): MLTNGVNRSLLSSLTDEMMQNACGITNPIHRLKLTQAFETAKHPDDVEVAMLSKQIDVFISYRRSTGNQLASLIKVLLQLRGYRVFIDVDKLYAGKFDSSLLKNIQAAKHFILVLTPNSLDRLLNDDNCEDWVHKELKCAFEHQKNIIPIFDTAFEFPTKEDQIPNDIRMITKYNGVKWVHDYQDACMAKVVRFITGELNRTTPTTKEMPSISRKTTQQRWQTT
Experiment: direct fluorescent base exchange assay
Type: biochemical
Settings: […] °C

| Compound | Km ([…] NAD+ (saturating), […] PEG […] Tris pH […] NaCl) [µM] | Km ([…] PC6 (saturating), […] PEG […] Tris pH […] NaCl) [µM] |
| --- | --- | --- |
| CCOc1ccc(/C=C/c2ccncc2)cc1 [PC6] | 165 |  |
| NC(=O)c1ccc[n+]([C@@H]2O[C@H](COP(=O)(O)OP(=O)(O)OC[C@H]3O[C@@H](n4cnc5c(N)ncnc54)[C@H](O)[C@@H]3O)[C@@H](O)[C@H]2O)c1 [NAD^+] |  | 630 |
